According to article PMC7104201 (iScience, 2020):

Target: CatB (Homo sapiens, UniProt P07858)
Format: biochemical
Conditions: pH 5

For CA-074 methyl ester [CatB inhibitor], the “blocking of CatB-dependent cleavage of EBOV GP” value was “effectively blocked”.
